# Experimental data taken from US9440982B2 (Eolas Therapeutics, Inc., priority 2012, dated 2016).
# Target: T1, CYP3A4 (Homo sapiens, UniProt P08684)
# T1 construct: pre-incubated with human liver microsomes and NADPH; from tissue; host or cells: human liver microsomes
# Test: Cytochrome P450 inhibition assay (midazolam hydroxylation)
# Type: in vitro ADME
# Details: human, human liver microsomes, probe midazolam (hydroxylation to 1′-hydroxymidazolam), 10 μM test compound, midazolam at approximately its Km
# Protocol: Compounds were tested for the potential to induce drug-drug interactions by inhibition of the cytochrome P450 3A4 isoform. The assay evaluated the metabolism of a specific marker substrate (CYP3A4, midazolam hydroxylation to 1′-hydroxymidazolam) in the presence or absence of 10 μM test compound. The concentration of the marker substrate was approximately its Km (Dixit et al., Biopharm. Drug Dispos. 2007, 28(5), 257-262). A specific inhibitor for the isoform was included in each run to validate the system. An appropriate positive control inhibitor was used. Mechanism-based inhibition was investigated where warranted using a classical method. To evaluate time-dependent inhibition, parallel samples may have been included where […] was pre-incubated with human liver microsomes and NADPH for 30 min prior to the addition of the P450 substrate. The percent inhibition of the pre-incubated and non-pre-incubated samples were compared as a preliminary evaluation of time-dependent inhibition.
# T1 sequence (P08684 whole entry): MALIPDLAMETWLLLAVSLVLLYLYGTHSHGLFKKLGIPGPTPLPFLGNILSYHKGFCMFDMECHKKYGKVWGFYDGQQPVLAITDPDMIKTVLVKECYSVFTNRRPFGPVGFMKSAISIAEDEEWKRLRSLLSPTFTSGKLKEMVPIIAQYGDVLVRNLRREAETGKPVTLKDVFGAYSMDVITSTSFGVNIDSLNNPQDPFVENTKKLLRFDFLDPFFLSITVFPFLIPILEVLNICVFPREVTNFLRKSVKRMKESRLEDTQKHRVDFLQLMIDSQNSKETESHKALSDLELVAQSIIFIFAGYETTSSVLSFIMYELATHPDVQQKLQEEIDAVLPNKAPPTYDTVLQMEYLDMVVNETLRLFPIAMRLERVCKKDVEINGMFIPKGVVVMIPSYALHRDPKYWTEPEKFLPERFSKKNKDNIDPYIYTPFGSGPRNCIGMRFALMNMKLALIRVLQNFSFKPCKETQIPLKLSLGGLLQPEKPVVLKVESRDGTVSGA
row,Structure (SMILES),inhibition at 10 µM [%]
1,"Cc1ccc(-n2nccn2)c(C(=O)N2CCC[C@@H](C)[C@H]2CNc2ncc(C#N)cc2F)n1 [Example A193, 5-Fluoro-6-((((2S,3R)-3-methyl-1-(6-methyl-3-(2H-1,2,3-triazol-2-yl)picolinoyl)piperidin-2-yl)methyl)amino)nicotinonitrile]",45
2,"Cc1ccc(-n2nccn2)c(C(=O)N2CCC[C@@H](C)[C@H]2CNc2ncc(Cl)cc2F)c1 [Example A173, ((2S,3R)-2-(((5-Chloro-3-fluoropyridin-2-yl)amino)methyl)-3-methylpiperidin-1-yl)(5-methyl-2-(2H-1,2,3-triazol-2-yl)phenyl)methanone]",81
3,"Cc1ccc(-n2cc(C)nn2)c(C(=O)N2CCC[C@@H](C)[C@H]2CNc2ccc(C(F)(F)F)cn2)c1 [Example A113, ((2S,3R)-3-Methyl-2-(((5-(trifluoromethyl)pyridin-2-yl)amino)methyl)piperidin-1-yl)(5-methyl-2-(4-methyl-1H-1,2,3-triazol-1-yl)phenyl)methanone]",98
4,"Cc1ccc(-n2cncn2)c(C(=O)N2CCC[C@@H](C)[C@H]2CNc2nc3cc(Cl)ccc3o2)c1 [Example A28, ((2S,3R)-2-(((5-Chlorobenzo[d]oxazol-2-yl)amino)methyl)-3-methylpiperidin-1-yl)(5-methyl-2-(1H-1,2,4-triazol-1-yl)phenyl)methanone]",95
5,"Cc1ccc(-c2ccc(C)nc2)c(C(=O)N2CCC[C@@H](C)[C@H]2CNc2nc3cc(Cl)ccc3o2)c1 [Example A38, ((2S,3R)-2-(((5-Chlorobenzo[d]oxazol-2-yl)amino)methyl)-3-methylpiperidin-1-yl)(5-methyl-2-(6-methylpyridin-3-yl)phenyl)methanone]",96
6,"Cc1ccc(-c2cnn(C)c2)c(C(=O)N2CCC[C@@H](C)[C@H]2CNc2ncc(Cl)cc2F)c1 [Example A97, ((2S,3R)-2-(((5-Chloro-3-fluoropyridin-2-yl)amino)methyl)-3-methylpiperidin-1-yl)(5-methyl-2-(1-methyl-1H-pyrazol-4-yl)phenyl)methanone]",98
7,"Cc1nc(C(=O)N2CCC[C@@H](C)[C@H]2CNc2nc3cc(F)ccc3o2)c(-c2ccc(F)cc2)s1 [Example A15, ((2S,3R)-2-(((5-Fluorobenzo[d]oxazol-2-yl)amino)methyl)-3-methylpiperidin-1-yl) (5-(4-fluorophenyl)-2-methylthiazol-4-yl)methanone]",78
8,"Cc1cc(C(=O)N2CCC[C@@H](C)[C@H]2CNc2ccc(C(F)(F)F)cn2)c(-n2nccn2)cc1F [Example A368, (4-Fluoro-5-methyl-2-(2H-1,2,3-triazol-2-yl)phenyl)((2S,3R)-3-methyl-2-(((5-(trifluoromethyl)pyridin-2-yl)amino)methyl)piperidin-1-yl)methanone]",83
9,"Cc1ccc(-n2cccn2)c(C(=O)N2CCC[C@@H](C)[C@H]2CNc2ccc(C#N)cn2)c1 [Example A155, 6-((((2S,3R)-3-Methyl-1-(5-methyl-2-(1H-pyrazol-1-yl)benzoyl)piperidin-2-yl)methyl)amino)nicotinonitrile]",72
10,"Cc1ccc(-c2cnn(C)c2)c(C(=O)N2CCC[C@@H](C)[C@H]2CNc2ncc(F)cc2F)c1 [Example A96, ((2S,3R)-2-(((3,5-Difluoropyridin-2-yl)amino)methyl)-3-methylpiperidin-1-yl)(5-methyl-2-(1-methyl-1H-pyrazol-4-yl)phenyl)methanone]",92
11,"Cc1ccc(-n2nccn2)c(C(=O)N2CCC[C@@H](C)[C@H]2CNc2ncc3c(C)cccc3n2)c1 [Example A214, ((2S,3R)-3-Methyl-2-(((5-methylquinazolin-2-yl)amino)methyl)piperidin-1-yl)(5-methyl-2-(2H-1,2,3-triazol-2-yl)phenyl)methanone]",69
